From ChEMBL document CHEMBL3044875, “Synthesis and antimicrobial activity of some bisoctahydroxanthene-1,8-dione derivatives” (2011)
Active and inactive are the calls of the source. The calls are words filed in the database; no cut-off is given here.

Key:
Aspergillus niger [1] = assay: Antifungal activity against Aspergillus niger ATCC 10949 at 40 ug/disk after 72 hr by disk diffusion method; type: functional, organism-based
Aspergillus niger [2] = assay: Antifungal activity against Aspergillus niger ATCC 10949 at 20 ug/disk after 72 hr by disk diffusion method; type: functional, organism-based
Rhodotorula mucilaginosa [3] = assay: Antifungal activity against Rhodotorula mucilaginosa at 140 ug/disk after 48 hr by disk diffusion method; type: functional; conditions: for zone of inhibition at 140 µg/disc: read-out: DIZ
Rhodotorula mucilaginosa [4] = assay: Antifungal activity against Rhodotorula mucilaginosa at 20 ug/disk after 48 hr by disk diffusion method; type: functional
Rhodotorula mucilaginosa [5] = assay: Antifungal activity against Rhodotorula mucilaginosa at 40 ug/disk after 48 hr by disk diffusion method; type: functional; conditions: for zone of inhibition at 40 µg/disc: read-out: DIZ
Candida albicans [6] = assay: Antifungal activity against Candida albicans ATCC 10231 at 140 ug/disk after 48 hr by disk-diffusion method; type: functional; conditions: for zone of inhibition at 140 µg/disc: ATCC 10231, 48 h, read-out: DIZ
Candida albicans [7] = assay: Antifungal activity against Candida albicans ATCC 10231 at 40 ug/disk after 48 hr by disk-diffusion method; type: functional; conditions: for zone of inhibition at 40 µg/disc: ATCC 10231, 48 h, read-out: DIZ
Candida albicans [8] = assay: Antifungal activity against Candida albicans ATCC 10231 at 20 ug/disk after 48 hr by disk-diffusion method; type: functional
Proteus vulgaris [9] = assay: Antibacterial activity against Proteus vulgaris NRRL-B-123 at 140 ug/disk after 24 hr by disk diffusion method; type: functional, organism-based
Aspergillus niger [10] = assay: Antifungal activity against Aspergillus niger ATCC 10949 at 140 ug/disk after 72 hr by disk diffusion method; type: functional; conditions: ATCC 10949, 72 h, read-out: DIZ
Proteus vulgaris [11] = assay: Antibacterial activity against Proteus vulgaris NRRL-B-123 at 40 ug/disk after 24 hr by disk diffusion method; type: functional, organism-based
Proteus vulgaris [12] = assay: Antibacterial activity against Proteus vulgaris NRRL-B-123 at 20 ug/disk after 24 hr by disk diffusion method; type: functional, organism-based
Pseudomonas aeruginosa [13] = assay: Antibacterial activity against Pseudomonas aeruginosa ATCC 27853 at 140 ug/disk after 24 hr by disk-diffusion method; type: functional, organism-based
Pseudomonas aeruginosa [14] = assay: Antibacterial activity against Pseudomonas aeruginosa ATCC 27853 at 40 ug/disk after 24 hr by disk-diffusion method; type: functional, organism-based
Pseudomonas aeruginosa [15] = assay: Antibacterial activity against Pseudomonas aeruginosa ATCC 27853 at 20 ug/disk after 24 hr by disk-diffusion method; type: functional, organism-based
Escherichia coli [16] = assay: Antibacterial activity against Escherichia coli ATCC 25922 at 40 ug/disk after 24 hr by disk-diffusion method; type: functional
Escherichia coli [17] = assay: Antibacterial activity against Escherichia coli ATCC 25922 at 140 ug/disk after 24 hr by disk-diffusion method; type: functional
Nocardia [18] = assay: Antibacterial activity against Nocardia canis at 140 ug/disk after 24 hr by disk diffusion method; type: functional
Escherichia coli [19] = assay: Antibacterial activity against Escherichia coli ATCC 25922 at 20 ug/disk after 24 hr by disk-diffusion method; type: functional
Nocardia [20] = assay: Antibacterial activity against Nocardia canis at 40 ug/disk after 24 hr by disk diffusion method; type: functional
Nocardia [21] = assay: Antibacterial activity against Nocardia canis at 20 ug/disk after 24 hr by disk diffusion method; type: functional, organism-based
[22] = system: Staphylococcus epidermidis; assay: Antibacterial activity against Staphylococcus epidermidis ATCC 12228 at 140 ug/disk after 24 hr by disk diffusion method; type: functional
[23] = system: Staphylococcus epidermidis; assay: Antibacterial activity against Staphylococcus epidermidis ATCC 12228 at 40 ug/disk after 24 hr by disk diffusion method; type: functional
[24] = system: Staphylococcus epidermidis; assay: Antibacterial activity against Staphylococcus epidermidis ATCC 12228 at 20 ug/disk after 24 hr by disk diffusion method; type: functional, organism-based
Bacillus cereus [25] = assay: Antibacterial activity against Bacillus cereus NRRL 3711 at 140 ug/disk after 24 hr by disk diffusion method; type: functional; conditions: for zone of inhibition at 140 µg/disc: NRRL 3711, 24 h, read-out: DIZ
Bacillus cereus [26] = assay: Antibacterial activity against Bacillus cereus NRRL 3711 at 40 ug/disk after 24 hr by disk diffusion method; type: functional; conditions: for zone of inhibition at 40 µg/disc: NRRL 3711, 24 h, read-out: DIZ
Bacillus cereus [27] = assay: Antibacterial activity against Bacillus cereus NRRL 3711 at 20 ug/disk after 24 hr by disk diffusion method; type: functional; conditions: for zone of inhibition at 20 µg/disc: NRRL 3711, 24 h, read-out: DIZ
Staphylococcus aureus [28] = assay: Antibacterial activity against Staphylococcus aureus ATCC 25923 at 140 ug/disc after 24 hr by disk diffusion method; type: functional
Staphylococcus aureus [29] = assay: Antibacterial activity against Staphylococcus aureus ATCC 25923 at 40 ug/disc after 24 hr by disk diffusion method; type: functional
Staphylococcus aureus [30] = assay: Antibacterial activity against Staphylococcus aureus ATCC 25923 at 20 ug/disc after 24 hr by disk diffusion method; type: functional
[31] = ATCC 25923, 24 h, read-out: DIZ

Row | SMILES | diameter of the inhibition zone (DIZ) (Aspergillus niger [1]) | diameter of the inhibition zone (DIZ) (Aspergillus niger [2]) | zone of inhibition at 140 µg/disc (Rhodotorula mucilaginosa [3]) | diameter of the inhibition zone (DIZ) (Rhodotorula mucilaginosa [4]) | zone of inhibition at 40 µg/disc (Rhodotorula mucilaginosa [5]) | diameter of the inhibition zone (DIZ) (Proteus vulgaris [9]) | zone of inhibition at 140 µg/disc (Aspergillus niger [10]) | diameter of the inhibition zone (DIZ) (Proteus vulgaris [11]) | diameter of the inhibition zone (DIZ) (Proteus vulgaris [12]) | diameter of the inhibition zone (DIZ) (Pseudomonas aeruginosa [13]) | diameter of the inhibition zone (DIZ) (Pseudomonas aeruginosa [14]) | diameter of the inhibition zone (DIZ) (Pseudomonas aeruginosa [15]) | diameter of the inhibition zone (DIZ) (Escherichia coli [16]) | diameter of the inhibition zone (DIZ) (Escherichia coli [17]) | diameter of the inhibition zone (DIZ) (Nocardia [18]) | diameter of the inhibition zone (DIZ) (Escherichia coli [19]) | diameter of the inhibition zone (DIZ) (Nocardia [20]) | diameter of the inhibition zone (DIZ) (Nocardia [21]) | diameter of the inhibition zone (DIZ) [23] | diameter of the inhibition zone (DIZ) [24] | other results
1 | O=C1CCCC2=C1C(c1cccc(C3C4=C(CCCC4=O)OC4=C3C(=O)CCC4)c1)C1=C(CCCC1=O)O2 | inactive | inactive | 9 mm | inactive | 7 mm | inactive | 7 mm | inactive | inactive | inactive | inactive | inactive | inactive | inactive | inactive | inactive | inactive | inactive | inactive | inactive | zone of inhibition at 140 µg/disc (Candida albicans [6]): 7 mm; zone of inhibition at 40 µg/disc (Candida albicans [7]): 7 mm; diameter of the inhibition zone (DIZ) (Candida albicans [8]): inactive; diameter of the inhibition zone (DIZ) [22]: inactive; zone of inhibition at 140 µg/disc (Bacillus cereus [25]): 8 mm; zone of inhibition at 40 µg/disc (Bacillus cereus [26]): 10 mm; zone of inhibition at 20 µg/disc (Bacillus cereus [27]): 8 mm; diameter of the inhibition zone (DIZ) (Staphylococcus aureus [28]): inactive; diameter of the inhibition zone (DIZ) (Staphylococcus aureus [29]): inactive; diameter of the inhibition zone (DIZ) (Staphylococcus aureus [30]): inactive
2 | CC1(C)CCC2=C(C1=O)C(c1ccc(C3C4=C(CCC(C)(C)C4=O)OC4=C3C(=O)C(C)(C)CC4)cc1)C1=C(CCC(C)(C)C1=O)O2 | inactive | inactive |  | inactive |  | inactive | 7 mm | inactive | inactive | inactive | inactive | inactive | inactive | inactive | inactive | inactive | inactive | inactive | inactive | inactive | diameter of the inhibition zone (DIZ) (Rhodotorula mucilaginosa [3]): inactive; diameter of the inhibition zone (DIZ) (Rhodotorula mucilaginosa [5]): inactive; diameter of the inhibition zone (DIZ) (Candida albicans [6]): inactive; diameter of the inhibition zone (DIZ) (Candida albicans [7]): inactive; diameter of the inhibition zone (DIZ) (Candida albicans [8]): inactive; diameter of the inhibition zone (DIZ) [22]: inactive; diameter of the inhibition zone (DIZ) (Bacillus cereus [25]): inactive; diameter of the inhibition zone (DIZ) (Bacillus cereus [26]): inactive; diameter of the inhibition zone (DIZ) (Bacillus cereus [27]): inactive; diameter of the inhibition zone (DIZ) (Staphylococcus aureus [28]): inactive; diameter of the inhibition zone (DIZ) (Staphylococcus aureus [29]): inactive; diameter of the inhibition zone (DIZ) (Staphylococcus aureus [30]): inactive
3 | O=C1CCCC2=C1C(c1ccc(C3C4=C(CCCC4=O)OC4=C3C(=O)CCC4)cc1)C1=C(CCCC1=O)O2 | inactive | inactive | 10 mm |  | 9 mm | inactive | 7 mm | inactive | inactive | inactive | inactive | inactive | inactive | inactive | inactive | inactive | inactive | inactive | inactive | inactive | zone of inhibition at 20 µg/disc (Rhodotorula mucilaginosa [4]; read-out: DIZ): 8 mm; zone of inhibition at 140 µg/disc (Candida albicans [6]): 8 mm; zone of inhibition at 40 µg/disc (Candida albicans [7]): 8 mm; zone of inhibition at 20 µg/disc (Candida albicans [8]; ATCC 10231, 48 h, read-out: DIZ): 7 mm; zone of inhibition at 140 µg/disc ([22]; ATCC 12228, 24 h, read-out: DIZ): 7 mm; zone of inhibition at 140 µg/disc (Bacillus cereus [25]): 8 mm; zone of inhibition at 40 µg/disc (Bacillus cereus [26]): 9 mm; zone of inhibition at 20 µg/disc (Bacillus cereus [27]): 8 mm; zone of inhibition at 140 µg/disc (Staphylococcus aureus [28]; [31]): 14 mm; zone of inhibition at 40 µg/disc (Staphylococcus aureus [29]; [31]): 10 mm; zone of inhibition at 20 µg/disc (Staphylococcus aureus [30]; [31]): 8 mm
